Experimental data as given in patent publication US20240351960A1, “METHOD FOR PRODUCING […] THIO[…], AND USE OF COMPOUND IN NITROGEN FERTILIZER FORMULATIONS” (NOVAEM BBTRADE, priority 2021, published 2024).
Several values for one entry are separate records, joined by “and”; a condition that tells them apart may be missing. Equal values may be shown once.

How the values were obtained:
urease [1] = experiment: Volatilization of urea from garden soil treated with urea containing PTA (Example 2); details: garden soil 1500 g, urea containing 0.1 wt % PTA (as third precipitate, at least 75% PTA), after four days, mass percent; control without PTA 15.4%
Procedure: Three 1500 g samples of garden soil were prepared, placed in airtight containers. One sample was treated with urea containing no PTA, and two samples with urea containing 0.1 wt % PTA. The amount of urea was the same for each sample. The PTA was the “third precipitate” within the meaning of the object of the present invention. It contained at least 75% by weight of PTA; the indication “0.1% by mass of PTA” refers here to the total mass of the third precipitate and not to the pure PTA which it contains.
Each soil sample was treated with 250 g of water before depositing the urea samples treated or not with PTA on the surface. The volatilization of urea was determined after four days, expressed in mass percent. For this, a current of air was conveyed above each sample using a membrane pump, and this air was led through a citric acid solution which fixes the ammonia by transforming it into ammonium. The citric acid solution was then titrated with a sodium hydroxide solution to calculate the amount of ammonia that had reacted with the citric acid solution. From the quantity of ammonia, the quantity of urea having generated it is calculated.
In this test, the earth was taken from a single location, and the containers were stored side by side in the same room. It can therefore be assumed that each batch was exposed to the same experimental conditions.

urease [2] = experiment: Rate of urea volatilization from agricultural earth treated with urea fertilizer containing PTA (Examples 4 and 5); details: after four days; for rate of urea volatilization: control 45.81%
Procedure: Three identical samples of agricultural earth were supplied. A first sample of this earth was treated with a urea fertilizer containing 0.2% by weight of the third precipitate. This precipitate contained at least 75% by weight of PTA; the indication “0.2% by mass of PTA” refers here to the total mass of the third precipitate and not to the pure PTA which it contains. A second sample of this earth was treated with the same quantity of the same fertilizer comprising 0.2% by mass of TPTA (in the sense indicated above for PTA). The third earth sample was treated with the same amount of the same fertilizer containing no urease inhibitor. The rate of urea volatilization was determined after four days of exposure:
Following the test described in Example 4, the dose effect of the PTA was determined by treating identical agricultural earth samples with a urea fertilizer comprising 0.05%, 0.1% and 0.2% by mass of PTA (in the sense indicated above: quantity of third precipitate).

Compound: NP(N)(N)=O [PTA, phosphoryl triamide]
- volatilization of urea (urease [1]): 1.5% and 3.05%
- volatilization of urea is reduced by (urease [2]; 0.2% by mass of PTA, versus control): approximately 75%
- rate of urea volatilization (urease [2]; urea fertilizer with 0.05% by mass of PTA (quantity of third precipitate)): 34.19%
- rate of urea volatilization (urease [2]; urea fertilizer with 0.1% by mass of PTA (quantity of third precipitate)): 29.56%
- rate of urea volatilization (urease [2]; urea fertilizer, printed as 0.02% PTA (quantity of third precipitate)): 11.55%
